# PMC3375286, “Crystal Structures Reveal the Multi-Ligand Binding Mechanism of Staphylococcus aureus ClfB” (PLoS Pathogens, 2012)
# Where no end group is shown, it is not given here.
# Molecular target: T1, Dermokine (Homo sapiens)
# T1 chain: SQSGSSGSGSNGDNN
# Assay: SPR
# Settings: not given
row,Molecule,Kd [µM]
1,Clumping factor B 197-542 (protein) SLAVAEPVVNAADAKGTNVNDKVTASDFKLEKTAFDPNQSGNTFMAANFKVTGQVKSGDYFTAKLPDSVTGNGDVDYSNSNNTMPIADIKSTNGDVVAKATYDILTKTYTFVFTDYVNDKENINGQFSLPLFTDRAKAPKSGTYDANINIADEMFDNKITYNYSSPIAGIDKPNGANISSQIIGVDTASGQNTYKQTVFVNPKQRVLGNTWVYIKGYQDKIEESSGKVSATDTKLRIFEVNDTSKLSDSYYADPNDSNLKEVTGEFKDKISYKYDNVASINFGDINKTYVVLVEGHYDNTGKNLKTQVIQENIDPATGKDYSIFGWNNENVVRYGGGSADGDSAVN,2.37

# Molecular target: T2, ClfB(197–542) wildtype (Staphylococcus aureus, UniProt O86476)
# T2 construct: The fragment of the ClfB gene (corresponding 197–542 aa) was amplified by PCR; His-tag; made in house; host or cells: E. coli BL21
# T2 sequence (O86476 197-542): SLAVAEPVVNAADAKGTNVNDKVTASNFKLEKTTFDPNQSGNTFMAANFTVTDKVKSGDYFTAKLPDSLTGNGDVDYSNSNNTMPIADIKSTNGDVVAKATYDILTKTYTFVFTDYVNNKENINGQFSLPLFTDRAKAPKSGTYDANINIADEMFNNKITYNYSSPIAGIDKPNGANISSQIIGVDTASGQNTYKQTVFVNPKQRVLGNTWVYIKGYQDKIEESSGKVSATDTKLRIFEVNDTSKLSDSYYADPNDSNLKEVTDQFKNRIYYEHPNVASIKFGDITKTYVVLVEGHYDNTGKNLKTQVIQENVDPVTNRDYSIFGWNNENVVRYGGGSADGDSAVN
# Assay: SPR (ProteOn XPR36) binding of ClfB(197–542) wild type to immobilized peptide 15 from Dermokine
# Settings: SPR ProteOn XPR36, peptide captured on NLC Sensor Chip (460 RU), 25°C, 10 mM HEPES pH 7.2, 150 mM NaCl; ClfB(197–542) injected at 87.5-700 µM; repeated three times; read-out: dissociation constant (KD)
# Experimental: Firstly, Derm was tested for its interaction with ClfB. To this end, we synthesized a 15-amino-acid-peptide (250–264; […], designated as Derm15 hereafter) derived from Derm and then characterized its binding to ClfB using the SPR (Surface Plasmon Resonance) assay. In the assay, ClfB bound to the peptide with a dissociation constant of 2.37 µM (Figure 7A). […] To understand the molecular mechanism underlying this interaction, we solved the crystal structure of ClfB(208–542) bound to the peptide at 2.5 Å resolution. As expected, Derm15 interacts with ClfB in a nearly identical manner with Fg α(316–328) and CK10(499–512) (Figure 7 B). The ClfB^Arg529 forms a hydrogen bond with […] and the C-terminus of N3 forms an extra strand, which is similar as that in the ClfB-Fg α(316–328) and ClfB-CK10(499–512) complexes (Figure 7 C). Mutagenesis studies were conducted to further verify the binding of Derm15 to ClfB. We replaced the residues ClfB^S236, W522 that participate in interactions with the peptide with alanine respectively. The mutant proteins were purified to homogeneity and tested for their interaction with the Derm peptide using SPR.
# Figure 7 Dermokine is a potential ligand of ClfB. […] Red, 700 µM; blue, 350 µM; green, 87.5 µM. […]
# Binding of ClfB(197–542) to peptide 15 was assessed by SPR using the ProteOn XPR36 equipment (Bio-Rad Laboratories, Inc.). […]
row,Molecule,Kd [µM]
1,GQSGSSGSGSNGDNN [Derm15],2.37

# Molecular target: T3, ClfB (Staphylococcus aureus, UniProt O86476)
# T3 construct: The fragment of the ClfB gene (corresponding 197–542 aa) was amplified by PCR; His-tag; made in house; host or cells: E. coli BL21
# T3 sequence (O86476 197-542): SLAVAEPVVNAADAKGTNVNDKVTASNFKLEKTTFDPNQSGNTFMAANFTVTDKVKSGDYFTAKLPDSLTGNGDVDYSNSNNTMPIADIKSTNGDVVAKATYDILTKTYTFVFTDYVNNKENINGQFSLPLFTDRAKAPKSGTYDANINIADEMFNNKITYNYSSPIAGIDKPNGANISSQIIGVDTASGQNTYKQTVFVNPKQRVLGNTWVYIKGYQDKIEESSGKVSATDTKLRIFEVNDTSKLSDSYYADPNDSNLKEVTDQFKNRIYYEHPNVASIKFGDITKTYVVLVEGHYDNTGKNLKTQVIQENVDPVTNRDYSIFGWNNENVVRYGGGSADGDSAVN
# Assay: SPR (BIAcore T200) alanine scan of 9-residue GSR peptides and the 6-residue peptide on immobilized ClfB
# Format: binding
# Settings: SPR BIAcore T200, 10°C; ClfB amine-coupled (~5300 RU) on CM5 chip; peptides 31.25-2000 µM in 10 mM HEPES pH 7.4, 150 mM NaCl, 0.005% Tween 20; 30 µl/min; 1:1 Langmuir fit
# Experimental: A. Panel of dermokine peptides. […] Navy, 2000 µM; Magenta, 1000 µM; Dark cyan or dark yellow, 500 µM; Blue, 250 µM; Red, 125 µM; Green, 62.5 µM; Black, 31.25 µM.
# The binding affinities between ClfB and the ten 9-amino–acid peptides and the 6-amino-acid peptide were determined by surface plasmon resonance (SPR) using BIAcore T200 instrument (GE Healthcare) at 10°C. The ClfB protein was immobilized to about 5300 Response Unit (RU) on a research-grade CM5 sensor chip in 10 mM sodium acetate, pH 5.0 by standard amine coupling method. The flow cell 1 was left blank as a reference. […] The ligands were allowed to associate for 60 s and dissociate for 120 s. Data were analyzed with the BIAcore T200 evaluation software by fitting to a 1∶1 Langmuir binding fitting model.
row,Molecule,Kd [µM]
1,GSSGSGSNA [Peptide10],1170
2,GSAGSGSNG [Peptide4],502
3,GSSGSGSAG [Peptide9],403
4,GASGSGSNG [Peptide3],1240
5,GSSASGSNG [Peptide5],1140
6,GSSGSG [Peptide11],833
7,GSSGAGSNG [Peptide6],195
8,GSSGSASNG [Peptide7],1610
9,GSSGSGANG [Peptide8],326
10,ASSGSGSNG [Peptide2],1600
